Source: patent US20110224208A1, “NOVEL INHIBITORS OF FLAVIVIRUS REPLICATION” (KATHOLIEKE UNIVERSITEIT LEUVEN, K.U. LEUVEN R&D, priority 2008, published 2011)
In brackets after ≈: the same amount, converted by molar mass.

test system: HCV replicon I389luc-ubi-neo/NS3-3'/5.1; test: Anti-HCV replicon assay (luciferase activity) in Huh-5-2 cells; format: cell-based, Hepatitis C virus; conditions: Hepatitis C virus, Huh-5-2, 72 h, concentration required to inhibit luciferase activity in the replicon system by 50%
Experimental: Cells were seeded at a density of 7000 cells per well in 96 well View Plate™ (Packard) in medium containing the same components as described above, except for G418. Cells were allowed to adhere and proliferate for 24 hr. At that time, culture medium was removed and serial dilutions of the test compounds were added in culture medium lacking G418. Interferon alfa 2a (500 IU) was included as a positive control. Plates were further incubated at 37° C. and 5% CO2 for 72 hours. Replication of the HCV replicon in Huh-5 cells results in luciferase activity in the cells. Luciferase activity is measured by adding 50 μl of 1×Glo-lysis buffer (Promega) for 15 minutes followed by 50 ul of the Steady-Glo Luciferase assay reagent (Promega). Luciferase activity is measured with a luminometer and the signal in each individual well is expressed as a percentage of the untreated cultures. […] Instead the density of the culture is measured by means of the MTS method (Promega).

**Q.** How did the IC50 turn out when COCCN1C(=O)c2cccc(F)c2C(C(=O)Nc2cccc(OC)c2)C1c1cccs1 (centres unmarked) [C61, 5-Fluoro-2-(2-methoxyethyl)-N-(3-methoxyphenyl)-1-oxo-3-(thiophen-2-yl)-1,2,3,4-tetrahydroisoquinoline-4-carboxamide] was run?
**A.** The IC50 was 0.22 µg/mL (≈ 0.484 µM).

**Q.** For COCCN1C(=O)c2ccccc2C(C(=O)Nc2cccc(OC)c2)C1c1cc2ccccc2s1 (centres unmarked) [C27, 3-(Benzo[b]thiophen-2-yl)-2-(2-methoxyethyl)-N-(3-methoxyphenyl)-1-oxo-1,2,3,4-tetrahydroisoquinoline-4-carboxamide], which IC50 is on record?
**A.** The IC50 was 17.4 µg/mL (≈ 35.8 µM).

**Q.** COCCN1C(=O)c2ccccc2C(C(=O)Nc2ccc(-n3nc(C)cc3C)cc2)C1c1cccs1 (centres unmarked) [C201, N-(4-(3,5-dimethyl-1H-pyrazol-1-yl)phenyl)-2-(2-methoxyethyl)-1-oxo-3-(thiophen-2-yl)-1,2,3,4-tetrahydroisoquinoline-4-carboxamide] was tested. Which IC50 did it give?
**A.** Its IC50 is 0.078 µg/mL (≈ 0.156 µM).

**Q.** With COCCN1C(=O)c2cc(Cl)ccc2C(C(=O)Nc2cccc(OC)c2)C1c1cccs1 (centres unmarked) [C43, 7-Chloro-2-(2-methoxyethyl)-N-(3-methoxyphenyl)-1-oxo-3-(thiophen-2-yl)-1,2,3,4-tetrahydroisoquinoline-4-carboxamide] as the compound, how does the IC50 read?
**A.** Its IC50 is 0.3 µg/mL (≈ 0.637 µM).

**Q.** How did the IC50 turn out when COCCN1C(=O)c2ccccc2C(C(=O)Nc2cccc(Cl)c2)C1c1cccs1 (centres unmarked) [C60, N-(3-chlorophenyl)-2-(2-methoxyethyl)-1-oxo-3-(thiophen-2-yl)-1,2,3,4-tetrahydroisoquinoline-4-carboxamide] was run?
**A.** Its IC50 is 0.98 µg/mL (≈ 2.22 µM).

**Q.** With COCCn1c(-c2ccco2)c(C(=O)Nc2cccc(OC)c2)c2ccccc2c1=O [C38, 3-(furan-2-yl)-2-(2-methoxyethyl)-N-(3-methoxyphenyl)-1-oxo-1,2-dihydroisoquinoline-4-carboxamide] as the compound, how does the IC50 read?
**A.** The IC50 was 41.4 µg/mL (≈ 98.9 µM).

**Q.** How did the IC50 turn out when COCCN1C(=O)c2ccccc2C(C(=O)Nc2cccc(OC(F)(F)F)c2)C1c1cccs1 (centres unmarked) [C112, 2-(2-methoxyethyl)-1-oxo-3-(thiophen-2-yl)-N-(3-(trifluoromethoxy)phenyl)-1,2,3,4-tetrahydroisoquinoline-4-carboxamide] was run?
**A.** Its IC50 is 0.31 µg/mL (≈ 0.632 µM).

**Q.** For COCCN1C(=O)c2ccccc2C(C(=O)Nc2ccc3scnc3c2)C1c1cccs1 (centres unmarked) [C164, N-(benzo[d]thiazol-5-yl)-2-(2-methoxyethyl)-1-oxo-3-(thiophen-2-yl)-1,2,3,4-tetrahydroisoquinoline-4-carboxamide], which IC50 is on record?
**A.** Its IC50 is 0.13 µg/mL (≈ 0.28 µM).

**Q.** How did the IC50 turn out when COCCN1C(=O)c2ccccc2C(C(=O)Nc2ccc(OC(F)(F)F)cc2)C1c1cccs1 (centres unmarked) [C113, 2-(2-methoxyethyl)-1-oxo-3-(thiophen-2-yl)-N-(4-(trifluoromethoxy)phenyl)-1,2,3,4-tetrahydroisoquinoline-4-carboxamide] was run?
**A.** Its IC50 is 0.19 µg/mL (≈ 0.387 µM).

**Q.** With COCCN1C(=O)c2cc(I)ccc2C(C(=O)Nc2cccc(OC)c2)C1c1cccs1 (centres unmarked) [C56, 7-Iodo-2-(2-methoxyethyl)-N-(3-methoxyphenyl)-1-oxo-3-(thiophen-2-yl)-1,2,3,4-tetrahydroisoquinoline-4-carboxamide] as the compound, how does the IC50 read?
**A.** The IC50 was 0.98 µg/mL (≈ 1.74 µM).

**Q.** Which IC50 does the source give for COCCN1C(=O)c2cc(N)ccc2C(C(=O)Nc2cccc(OC)c2)C1c1cccs1 (centres unmarked) [C147, 7-amino-2-(2-methoxyethyl)-N-(3-methoxyphenyl)-1-oxo-3-(thiophen-2-yl)-1,2,3,4-tetrahydroisoquinoline-4-carboxamide] here?
**A.** Its IC50 is 0.14 µg/mL (≈ 0.31 µM).

**Q.** With COCCN1C(=O)c2ccccc2C(C(=O)Nc2ccc(C(C)C)cc2)C1c1cccs1 (centres unmarked) [C165, N-(4-isopropylphenyl)-2-(2-methoxyethyl)-1-oxo-3-(thiophen-2-yl)-1,2,3,4-tetrahydroisoquinoline-4-carboxamide] as the compound, how does the IC50 read?
**A.** The IC50 was 0.4 µg/mL (≈ 0.892 µM).

**Q.** With COCCN1C(=O)c2ccccc2C(C(=O)Nc2ccc3nccnc3c2)C1c1cccs1 (centres unmarked) [C171, 2-(2-methoxyethyl)-1-oxo-N-(quinoxalin-6-yl)-3-(thiophen-2-yl)-1,2,3,4-tetrahydroisoquinoline-4-carboxamide] as the compound, how does the IC50 read?
**A.** Its IC50 is 0.12 µg/mL (≈ 0.262 µM).

**Q.** With COCCN1C(=O)c2ccccc2C(C(=O)Nc2cccc(OC)c2)C1c1cc(C)no1 (centres unmarked) [C104, 2-(2-methoxyethyl)-N-(3-methoxyphenyl)-3-(3-methylisoxazol-5-yl)-1-oxo-1,2,3,4-tetrahydroisoquinoline-4-carboxamide] as the compound, how does the IC50 read?
**A.** Its IC50 is 10.1 µg/mL (≈ 23.1 µM).
